Experiments:
[1] = test system: T47D breast cancer multicellular tumor spheroids; assay: In vitro screen in T47D breast cancer multicellular tumor spheroids, BET inhibitor plus palbociclib; assay type: cell-based; details: for Synergy score: BET inhibitor (30, 300, 3000 nM) in combination with 25 nM palbociclib, from AUC of spheroid growth curves (Chalice Analyzer); for Growth inhibition of T47D spheroids, as average diameter (mm): combination with palbociclib (25 nM) versus single agents
Protocol: T47D multicellular tumor spheroids were grown in a low-adhesion 96-well plate for use in screening. […] Two hundred T47D cells were seeded per well of 96-well ultralow attachment plates (ULA-96U, Thermo Fisher). Cells were grown for 4 days to allow spheroid formation, followed by initiation of compound treatment as indicated (day 0). […] The medium was replaced every 3 days. Spheroid average diameter was quantified every 3 days (Celigo 200-BFFL-S, Nexcelcom) and spheroid growth curves were obtained. The area-under-curve (AUC) was quantified and used to calculate synergy scores for BET inhibitors in combination with palbociclib (Chalice Analyzer, Horizon Discovery).

BRD4 = BRD4 (Homo sapiens, UniProt O60885); details: method not given; listed beside Literature Ref.; cited from earlier work
[2] = test system: Hs766T pancreatic cancer spheroids; assay: In vitro screen in Hs766T PDAC multicellular tumor spheroids, BET inhibitor plus palbociclib; assay type: cell-based; details: combination with palbociclib (50 nM) versus single agents
Protocol: Hs766T multicellular tumor spheroids were grown in a low-adhesion 96-well plate for use in screening. Hs766T cells were cultured in DMEM medium supplemented with 10% fetal bovine serum (GIBCO™). 2% Matrigel (Cultrex, cat#3432-005-1) was added to the medium, and 400 cells/well were subsequently seeded per well of 96-well ultralow attachment plates (ULA-96U, Thermo Fisher). Cells were grown for 4 days to allow spheroid formation, followed by initiation of compound treatment as indicated (day 0). Cells were treated either with vehicle (DMSO), or with 3 nM, 10 nM or 30 nM of test compound B7, or 30 nM, 300 nM or 3000 nM of test compound B8. […] The medium was replaced every 3 days. Spheroid average diameter was quantified every 3 days (Celigo 200-BFFL-S, Nexcelcom). Spheroid growth curves, generated as described in Example 2, are shown in FIGS. 12A-12C (B7); and FIGS. 13A-13C (B8).

[3] = test system: MCF-7 breast cancer xenograft; assay: In vivo study in MCF-7 breast cancer xenograft; design: species or system NOD scid gamma (NSG) mice; details: palbociclib 50 mpk plus ABBV-075 2 mpk once daily days 0-20, recovery until day 47
Protocol: NOD scid gamma (NSG) mice (6-7 weeks old, Jax laboratory, Sacramento CA) were subcutaneously injected with 5×10^6 MCF-7 cells (ATCC) with 50% matrigel. When MCF-7 xenografts reached a volume of -150 mm^3, the tumor bearing mice were randomly assigned to four treatment groups, with each n=10 (vehicle, palbociclib (50 mpk), mivebresib (2 mpk), combination treatment with palbociclib (50 mpk) plus mivebresib (2 mpk)). Treatment was initiated after the randomization as indicated. Mice were treated once daily from days 0-20 and then tumors were allowed to recover until day 47. Mean tumor volumes (mm^3) are averages of MCF-7 xenografts (n=10).

Row | Compound | Synergy score [1] | Growth inhibition of T47D spheroids, as average diameter (mm) [1] | IC50 (BRD4) [nM] | Growth inhibition of Hs766T spheroids, as average diameter (mm) [2] | Tumor growth delay and tumor growth inhibition (mean tumor volume) [3]
1 | Cc1cc2cc(NS(=O)(=O)c3ccccc3F)ccc2[nH]c1=O [B4, PFI-2] | 0.79 | enhanced growth inhibition | 96 | – | –
2 | COc1nnc2ccc(N3CCC(c4ccc(OCCN5CCN(C)C(=O)[C@H]5C)cc4)CC3)nn12 [B8, AZD5153] | – | enhanced growth inhibition | – | enhanced growth inhibition | –
3 | PFI-1 [B5] | 0.76 | enhanced growth inhibition | 136 | – | –
4 | COc1cc2c(cc1-c1c(C)noc1C)ncc1[nH]c(=O)n([C@H](C)c3ccccn3)c12 [B1, IBET-151 (GSK1210151)] | 1.09 | enhanced growth inhibition | – | – | –
5 | Cc1noc2c1-c1ccccc1C(c1ccc(Cl)cc1)=N[C@H]2CC(N)=O [B9, CPI-0610] | – | enhanced growth inhibition | – | – | –
6 | CCS(=O)(=O)Nc1ccc(Oc2ccc(F)cc2F)c(-c2cn(C)c(=O)c3[nH]ccc23)c1 [B7, ABBV-075 (mivebresib)] | – | enhanced growth inhibition | 1.5 | enhanced growth inhibition | enhanced tumor growth delay and tumor growth inhibition
7 | COc1cc(OC)c2c(=O)[nH]c(-c3cc(C)c(OCCO)c(C)c3)nc2c1 [B6, RVX-208 (RVX000222 or apabetalone)] | 0.33 | enhanced growth inhibition | – | – | –
8 | CCNC(=O)C[C@@H]1N=C(c2ccc(Cl)cc2)c2cc(OC)ccc2-n2c(C)nnc21 [B3, IBET-762 (GSK525762)] | – | enhanced growth inhibition | – | – | –
9 | Cc1sc2c(c1C)C(c1ccc(Cl)cc1)=N[C@@H](CC(=O)OC(C)(C)C)c1nnc(C)n1-2 [B2, JQ1] | 1.08 | enhanced growth inhibition | – | – | –
10 | Cc1sc2c(c1C)C(c1ccc(Cl)cc1)=N[C@@H](CC(=O)Nc1ccc(O)cc1)c1nnc(C)n1-2 [B10, MK-8628 (OTX015)] | – | enhanced growth inhibition | – | – | –
